Laboratory results taken from patent publication US7122558B2 (priority 2000, dated 2006).
Structures can show the parent of a compound that is named as a salt.

Target: T1, human muscarinic receptors M3 (Homo sapiens, UniProt P20309)
T1 construct: expressed in transfected cells; host or cells: CHO-K1 (chinese hamster ovary-K1), stably transfected; membrane preparations
Test: biochemical
Format: binding
Conditions: for inhibition at 0.1 µM: read-out: % INHIBITION concentration: 1.00E−07 M; for inhibition at 0.01 µM: read-out: % INHIBITION concentration: 1.00E−08 M

T1 sequence (P20309 whole entry): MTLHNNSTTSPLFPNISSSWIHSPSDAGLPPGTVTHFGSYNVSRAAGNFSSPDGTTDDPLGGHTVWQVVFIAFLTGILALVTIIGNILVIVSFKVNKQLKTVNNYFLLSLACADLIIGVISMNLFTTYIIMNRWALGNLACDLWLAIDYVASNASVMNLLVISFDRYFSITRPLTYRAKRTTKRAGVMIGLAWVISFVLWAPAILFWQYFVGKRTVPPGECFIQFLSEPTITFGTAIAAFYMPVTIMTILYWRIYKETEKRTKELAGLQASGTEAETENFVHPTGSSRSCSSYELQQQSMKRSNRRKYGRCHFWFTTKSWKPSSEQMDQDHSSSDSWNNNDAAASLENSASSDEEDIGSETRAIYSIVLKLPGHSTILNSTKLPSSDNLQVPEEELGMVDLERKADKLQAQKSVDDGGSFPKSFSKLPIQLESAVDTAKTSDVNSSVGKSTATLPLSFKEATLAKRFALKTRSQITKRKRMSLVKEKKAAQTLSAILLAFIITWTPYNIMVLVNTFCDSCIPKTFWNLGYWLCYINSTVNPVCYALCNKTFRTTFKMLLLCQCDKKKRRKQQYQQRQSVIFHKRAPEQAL

Compound | inhibition at 0.1 µM | inhibition at 0.01 µM
C=CCC(O)(C(=O)O[C@H]1C[N+]2(CCCOc3ccccc3)CCC1CC2)c1cccs1 (stereo partly drawn) [Example 13, (3R)-3-(2-Hydroxy-2-thien-2-ylpent-4-enoyloxy)-1-(3-phenoxypropyl)-1-azoniabicyclo[2.2.2]octane bromide] | 76% | 36%
CCCCCC(O)(C(=O)O[C@H]1C[N+]2(CCCOc3ccccc3)CCC1CC2)c1cccs1 (stereo partly drawn) [Example 16, (3R)-3-(2-Hydroxy-2-thien-2-ylheptanoyloxy)-1-(3-phenoxypropyl)-1-azoniabicyclo[2.2.2]octane trifluoroacetate] | 74.2% | 36.3%
O=C(O[C@H]1C[N+]2(CCCOc3ccccc3)CCC1CC2)[C@](O)(c1cccs1)C1CCCC1 [Example 22, (3R)-3-[(2S)-2-Cyclopentyl-2-hydroxy-2-thien-2-ylacetoxy]-1-(3-phenoxypropyl)-1-azoniabicyclo[2.2.2]octane bromide] | 81.5% | 72%
O=C(O[C@H]1C[N+]2(CCCc3cccs3)CCC1CC2)[C@](O)(c1cccs1)C1CCCC1 [Example 23, (3R)-3-[(2S)-2-Cyclopentyl-2-hydroxy-2-thien-2-yl-acetoxy]-1-(3-thien-2-ylpropyl)-1-azoniabicyclo[2.2.2]octane trifluoroacetate] | 75.6% | 63.3%
O=C(O[C@H]1C[N+]2(CCOc3ccccc3)CCC1CC2)[C@](O)(c1cccs1)C1CCCC1 [Example 24, (3R)-3-[(2S)-2-Cyclopentyl-2-hydroxy-2-thien-2-ylacetoxy]-1-(2-phenoxyethyl)-1-azoniabicyclo[2.2.2]octane bromide] | 78% | 56.6%
O=C(O[C@H]1C[N+]2(CCc3ccccc3)CCC1CC2)[C@](O)(c1cccs1)C1CCCC1 [Example 25, (3R)-3-[(2S)-2-Cyclopentyl-2-hydroxy-2-thien-2-ylacetoxy]-1-phenethyl-1-azoniabicyclo[2.2.2]octane trifluoroacetate] | 76.1% | 62.6%
O=C(O[C@H]1C[N+]2(CCCc3ccccc3)CCC1CC2)[C@](O)(c1cccs1)C1CCCC1 [Example 26, (3R)-3-[(2S)-2-Cyclopentyl-2-hydroxy-2-thien-2-ylacetoxy]-1-(3-phenylpropyl)-1-azoniabicyclo[2.2.2]octane trifluoroacetate] | 75.6% | 63.8%
O=C(O[C@H]1C[N+]2(CCCOc3ccc(F)cc3)CCC1CC2)[C@](O)(c1cccs1)C1CCCC1 [Example 28, (3R)-3-[(2S)-2-Cyclopentyl-2-hydroxy-2-thien-2-ylacetoxy]-1-[3-(4-fluorophenoxy)propyl]-1-azoniabicyclo[2.2.2]octane trifluoroacetate] | 78.3% | 60.6%
O=C(O[C@H]1C[N+]2(CCCOc3cccc(O)c3)CCC1CC2)[C@](O)(c1cccs1)C1CCCC1 [Example 31, (3R)-3-[(2S)-2-Cyclopentyl-2-hydroxy-2-thien-2-ylacetoxy]-1-[3-(3-hydroxyphenoxy)propyl]-1-azoniabicyclo[2.2.2]octane trifluoroacetate] | 74.3% | 54.3%
Cc1ccccc1OCCC[N+]12CCC(CC1)[C@@H](OC(=O)[C@](O)(c1cccs1)C1CCCC1)C2 [Example 33, (3R)-3-[(2S)-2-Cyclopentyl-2-hydroxy-2-thien-2-ylacetoxy]-1-(3-o-tolyloxypropyl)1-azoniabicyclo[2.2.2]octane trifluoroacetate] | 72.8% | 46.7%
N#Cc1cccc(OCCC[N+]23CCC(CC2)[C@@H](OC(=O)[C@](O)(c2cccs2)C2CCCC2)C3)c1 [Example 34, 1-[3-(3-Cyanophenoxy)propyl]-(3R)-3-[(2S)-2-cyclopentyl-2-hydroxy-2-thien-2-ylacetoxy]-1-azoniabicyclo[2.2.2]octane trifluoroacetate] | 85.3% | 68.3%
CN(CCC[N+]12CCC(CC1)[C@@H](OC(=O)[C@](O)(c1cccs1)C1CCCC1)C2)c1ccccc1 [Example 36, (3R)-3-[(2S)-2-Cyclopentyl-2-hydroxy-2-thien-2-ylacetoxy]-1-[3-(methylphenylamino)propyl]-1-azoniabicyclo[2.2.2]octane trifluoroacetate] | 84.2% | 42%
O=C(O[C@H]1C[N+]2(CCCSc3ccccc3)CCC1CC2)[C@](O)(c1cccs1)C1CCCC1 [Example 37, (3R)-3-[(2S)-2-Cyclopentyl-2-hydroxy-2-thien-2-ylacetoxy]-1-(3-phenylsulfanylpropyl)-1-azoniabicyclo[2.2.2]octane trifluoroacetate] | 88.1% | 72.6%
O=C(CCC[N+]12CCC(CC1)[C@@H](OC(=O)[C@](O)(c1cccs1)C1CCCC1)C2)c1ccccc1 [Example 38, (3R)-3-[(2S)-2-Cyclopentyl-2-hydroxy-2-thien-2-ylacetoxy]-1-(4-oxo-4-phenylbutyl)-1-azoniabicyclo[2.2.2]octane trifluoroacetate] | 86.3% | 57.7%
O=C(O[C@H]1C[N+]2(CCCOc3ccccc3Cl)CCC1CC2)[C@](O)(c1cccs1)C1CCCC1 [Example 40, 1-[3-(2-Chlorophenoxy)-propyl]-(3R)-3-[(2S)-2-cyclopentyl-2-hydroxy-2-thien-2-ylacetoxy]-1-azoniabicyclo[2.2.2]octane trifluoroacetate] | 86.9% | 72.7%
O=C(O[C@H]1C[N+]2(CCCOc3ccc(F)cc3F)CCC1CC2)[C@](O)(c1cccs1)C1CCCC1 [Example 43, (3R)-3-[(2S)-2-Cyclopentyl-2-hydroxy-2-thien-2-ylacetoxy]-1-[3-(2,4-difluorophenoxy)propyl]-1-azoniabicyclo[2.2.2]octane trifluoroacetate] | 83.4% | 58.7%
COc1ccc(OCCC[N+]23CCC(CC2)[C@@H](OC(=O)[C@](O)(c2cccs2)C2CCCC2)C3)cc1 [Example 44, (3R)-3-[(2S)-2-Cyclopentyl-2-hydroxy-2-thien-2-ylacetoxy]-1-[3-(4-methoxyphenoxy)propyl]-1-azoniabicyclo[2.2.2]octane trifluoroacetate] | 84.6% | 44.6%
O=C(O[C@H]1C[N+]2(CCCOc3ccc4c(c3)OCO4)CCC1CC2)[C@](O)(c1cccs1)C1CCCC1 [Example 46, 1-[3-(Benzo[1,3]dioxol-5-yloxy)propyl]-(3R)-3-[(2S)-2-cyclopentyl-2-hydroxy-2-thien-2-ylacetoxy]-1-azoniabicyclo[2.2.2]octane trifluoroacetate] | 87.1% | 57.6%
O=C(O[C@H]1C[N+]2(CCCOc3ccccc3)CCC1CC2)[C@@](O)(c1cccs1)C1CCCC1 [Example 53, (3R)-3-[(2R)-2-cyclopentyl-2-hydroxy-2-thien-2-ylacetoxy]-1-(3-phenoxypropyl)-1-azoniabicyclo[2.2.2]octane bromide] | 81.5% | 58%
O=C(O[C@H]1C[N+]2(CCCc3cccs3)CCC1CC2)[C@@](O)(c1cccs1)C1CCCC1 [Example 54, (3R)-3-[(2R)-2-Cyclopentyl-2-hydroxy-2-thien-2-ylacetoxy]-1-(3-thien-2-ylpropyl)-1-azoniabicyclo[2.2.2]octane trifluoroacetate] | 72.5% | 44.1%
